Experimental data: US20140348756A1, “WATER-FREE FORMULATIONS HAVING A COOLING EFFECT” (Henkel AG & Co. KGaA, priority 2011, published 2014)

Test system: test persons
Assay: Measuring the cooling effect: antiperspirant aerosols evaluated by test persons
Type: in vivo
From the text: Measuring the Cooling Effect
Inventive antiperspirant aerosols were produced with various cooling agents and evaluated by test persons. It was shown that the cooling agent L-menthol is employable only in very small quantities, namely in quantities below 0.1 wt %, relative to the weight of the gasified aerosol formulation, corresponding to a weight fraction of 0.66 wt %, relative to the weight of the formulation, without taking into account the propellant. […] The skin compatibility in the armpit area was also worsened by menthol above 0.1 wt %, relative to the weight of the gasified aerosol formulation, corresponding to a weight fraction of 0.66 wt %, relative to the weight of the formulation, without taking into account the propellant. […] The proportion of nonresponders, 47%, was too high, however, and could not be reduced by increasing the concentration of L-menthol without the appearance of the cited inacceptable side effects.
The formulation B including 1.0 wt % of an extract of Rumex acetosa leaf in solution/suspension in isopropyl myristate with a dry substance weight of 0.5 wt %, relative to the weight of the raw material itself, was also found to be cooling by 57% of the test persons. […] The amount of dry substance of the oily Rumex acetosa leaf extract here amounted to 0.033 wt %, relative to the weight of the inventive composition without propellant. […]

## CC(C)[C@@H]1CC[C@@H](C)C[C@H]1O [L-menthol]
Relative to the weight of the formulation, without taking into account the propellant
  employable quantity of the cooling agent: < 0.66 wt %
Relative to the weight of the gasified aerosol formulation
  employable quantity of the cooling agent: below 0.1 wt %
